Earlier results, collected in PMC5862601 (Oncotarget, 2018).
Read-outs that look alike come from different tables or passages of the source.

Experiments:
A2B receptor (CHO-A2B) = details: ref De Filippo E, et al. Purinergic Signal. 2016;12: 313-329. [11]; cited from earlier work
[1] = tested on: HEK293 (native) cells, A2B ≥ A2A; details: cited from earlier work
[2] = tested on: T24 human bladder carcinoma cells; details: cited from earlier work; for EC50: T24 human bladder carcinoma
[3] = tested on: HMEC-1 human microvascular endothelial cell line; parameters: method as in Feoktistov I, et al. Circ Res. 2002; 90:531-538. [21]; details: ref Feoktistov I, et al. Circ Res. 2002, 90:531-538. [21]; cited from earlier work
Jurkat-T cells = details: cited from earlier work; for EC50: Jurkat-T, ref Van der Ploeg et al. Naunyn Schmiedeberg’s Arch Pharmacol. 1996, 353: 250-260. [22]
[4] = tested on: Human prostatic carcinoma cells PC-3; parameters: method as in Wei Q, et al. Purinergic Signal. 2013; 9: 271-280. [23]; details: ref Wei Q, et al. Purinergic Signal. 2013, 9: 271-280. [23]; cited from earlier work
[5] = tested on: Ovarian cancer cell line OVCAR-3; parameters: method as in Hajiahmadi S, et al. Res Pharm Sci. 2015; 10: 43-51. [24]; details: ref Hajiahmadi S, et al. Res Pharm Sci. 2015, 10: 43-51. [24]; cited from earlier work
[6] = tested on: Ovarian cancer cell line Caov-4; parameters: method as in Hajiahmadi S, et al. Res Pharm Sci. 2015; 10: 43-51. [24]; details: ref Hajiahmadi S, et al. Res Pharm Sci. 2015, 10: 43-51. [24]; cited from earlier work
[7] = tested on: Ovarian cancer cell line SKOV-3; parameters: method as in Hajiahmadi S, et al. Res Pharm Sci. 2015; 10: 43-51. [24]; details: ref Hajiahmadi S, et al. Res Pharm Sci. 2015, 10: 43-51. [24]; cited from earlier work
[8] = tested on: Breast cancer cell line MDA-MB-231; parameters: method as in Panjehpour M, et al. Br J Pharmacol. 2005; 145: 211-218. [25]; details: ref Panjehpour M, et al. Br J Pharmacol. 2005, 145: 211-218. [25]; cited from earlier work
[9] = tested on: HUVEC Human Umbilical Vein Endothelial Cells; parameters: method as in Feoktistov I, et al. Circ Res. 2002; 90: 531-538. [21]; details: HUVEC (A2A > A2B); ref Feoktistov I, et al. Circ Res. 2002; 90: 531-538. [21]; cited from earlier work
[10] = tested on: PC12 (rat) phaeochromocytoma cells; details: cited from earlier work
[11] = tested on: isolated perfused mouse heart; details: A2B knockout vs wildtype mice, ref [51]; cited from earlier work
HEK-A2B cells, A2B ≥ A2A = details: cited from earlier work
[12] = tested on: prostate cancer cell lines (A2B > A2A); details: three prostate cancer cell lines (A2B > A2A); ref [13]; cited from earlier work
[13] = tested on: human ovarian cancer cell lines (A2B > A2A); details: three human ovarian cancer cell lines (A2B > A2A); ref [12]; cited from earlier work
[14] = ref Gao Z, et al. Biochem Pharmacol. 2014, 90: 297-306. [17]
[15] = ref van der Ploeg et al. Naunyn Schmiedeberg’s Arch Pharmacol. 1996, 353: 250-260. [22], read-out: EC50

Structure (SMILES)	EC50 [3] [µM]	EC50 (Jurkat-T cells) [µM]	EC50 [4] [µM]	EC50 [5] [µM]	EC50 [6] [µM]	EC50 [7] [µM]	EC50 [8] [µM]	EC50 [9] [µM]	EC50 [10, 15] [µM]	increase in coronary flow [11]	also measured
CCNC(=O)[C@H]1O[C@@H](n2cnc3c(N)nc(NCCc4ccc(CCC(=O)O)cc4)nc32)[C@H](O)[C@@H]1O [CGS-21680, (2-p-[2-carboxyethyl]phenethylamino)-5´-N-ethylcarboxamidoadenosine]	> 100	> 100	> 10	> 100	> 100	> 100	> 10	0.469	0.09	increased coronary flow in A2B knockout (KO) mice to a significantly higher degree than in wildtype (WT) mice	EC50 (A2B receptor (CHO-A2B)): 31.1 µM; EC50 ([1]; ref Cooper J, et al. Br J Pharmacol. 1997, 122: 546-550. [18]): > 30 µM; EC50 [1, 14]: > 10 µM; induction of cAMP accumulation ([2]; T24 (A2B > A2A), ref [45]): inactive; EC50 [2, 14]: > 10 µM; EC50 ([2]; ref Phelps PT, et al. Eur J Pharmacol. 2006, 536: 28-37. [20]): > 10 µM; activity in cAMP assays (Jurkat-T cells; Jurkat-T cells (A2B ≥ A2A), ref [47]): nearly inactive; EC50 ([10]; ref Hide I, et al. Mol Pharmacol. 1992, 41: 352-359. [26], read-out: EC50): 0.064 µM
CCNC(=O)[C@H]1O[C@@H](n2cnc3c(N)ncnc32)[C@H](O)[C@@H]1O [NECA, 5′-N-ethylcarboxamidoadenosine]	14	5.8	0.469	6.6	9.12	18	1.13	0.95	0.2	increased coronary flow in A2B knockout (KO) mice to a significantly higher degree than in wildtype (WT) mice	EC50 (HEK-A2B cells, A2B ≥ A2A; [14]): 0.021 µM; EC50 (HEK-A2B cells, A2B ≥ A2A; ref Hinz S, et al. J Pharmacol Exp Ther. 2014, 3: 427-436. [15]): 0.2 µM; EC50 (HEK-A2B cells, A2B ≥ A2A; ref Linden J, et al. Mol Pharmacol. 1999, 56: 705-713. [19]): 0.0286 µM; EC50 ([10]; high-affinity component, ref Hide I, et al. Mol Pharmacol. 1992, 41: 352-359. [26], read-out: EC50, biphasic: KH): 0.066 µM; EC50 ([10]; low-affinity component, ref Hide I, et al. Mol Pharmacol. 1992, 41: 352-359. [26], read-out: EC50, biphasic: KL): 7.5 µM; induction of cAMP accumulation [12]: concentration-dependently induced cAMP accumulation; induction of cAMP accumulation [13]: concentration-dependently induced cAMP accumulation
